Results taken from patent US20260285863A1, “COMPOUNDS CAPABLE OF MODULATING GPR65” (Pathios Therapeutics Limited, priority 2023, published 2026).

molecular target: T1, human recombinant GPR65 (Homo sapiens, UniProt Q8IYL9); test: Human GPR65 cAMP HTRF antagonist assay; assay type: cell-based; settings: 1321N1-hrGPR65 cells, assay pH 7.2, cAMP HTRF; read-out: hGPR65 IC50
T1 construct: host or cells: 1321N1 human astrocytoma cells (1321N1-hrGPR65)
In short: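 1321N1 cells stably expressing human GPR65 were preincubated 30 min at room temperature with compound in KRH pH 7.6 containing 1 mM IBMX and 200 μM EDTA. They were then acid-stimulated to pH 7.2 for 30 min, with pH 7.9 as control. cAMP was read by HTRF (665/620 ratio), and IC50 came from normalised 4-parameter logistic fits.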

T1 sequence (Q8IYL9 whole entry): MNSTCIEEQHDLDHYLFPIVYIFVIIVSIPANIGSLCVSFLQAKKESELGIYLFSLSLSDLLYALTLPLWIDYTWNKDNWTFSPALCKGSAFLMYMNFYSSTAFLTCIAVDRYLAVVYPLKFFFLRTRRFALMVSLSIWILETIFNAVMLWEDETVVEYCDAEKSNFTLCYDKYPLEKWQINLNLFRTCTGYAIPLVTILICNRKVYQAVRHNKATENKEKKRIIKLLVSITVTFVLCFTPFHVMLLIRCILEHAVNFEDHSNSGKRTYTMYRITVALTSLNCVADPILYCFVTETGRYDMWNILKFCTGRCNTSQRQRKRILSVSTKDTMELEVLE

Structure (SMILES) | IC50
Cc1cc(-c2cc(F)c(NC(=O)N3[C@H]4CC[C@@H]3c3c[nH]c(=O)cc3C4)cc2Cl)cc2nsnc12 [Compound 24, (6S,9R)-N-(5-chloro-2-fluoro-4-(7-methylbenzo[c][1,2,5]thiadiazol-5-yl)phenyl)-3-oxo-3,5,6,7,8,9-hexahydro-2H-6,9-epiminocyclohepta[c]pyridine-10-carboxamide] | < 500 nM
Cn1ncc2cc(-c3cc(F)c(NC(=O)N4[C@H]5CC[C@@H]4c4c[nH]c(=O)cc4C5)cc3Cl)ccc21 [Compound 37, (6S,9R)-N-(5-chloro-2-fluoro-4-(1-methyl-1H-indazol-5-yl)phenyl)-3-oxo-3,5,6,7,8,9-hexahydro-2H-6,9-epiminocyclohepta[c]pyridine-10-carboxamide] | < 500 nM
O=C(Nc1ccc(Cl)cc1F)N1[C@H]2CC[C@@H]1c1ccnc(F)c1C2 [Compound 46, (5R,8S)-N-(4-chloro-2-fluorophenyl)-1-fluoro-6,7,8,9-tetrahydro-5H-5,8-epiminocyclohepta[c]pyridine-10-carboxamide] | < 500 nM
CN(CC(F)(F)F)c1ccc(-c2cc(F)c(NC(=O)N3[C@H]4CC[C@@H]3c3c[nH]c(=O)cc3C4)cc2Cl)cn1 [Compound 8, (6S,9R)-N-(5-chloro-2-fluoro-4-(6-(methyl(2,2,2-trifluoroethyl)amino)pyridin-3-yl)phenyl)-3-oxo-3,5,6,7,8,9-hexahydro-2H-6,9-epiminocyclohepta[c]pyridine-10-carboxamide] | < 500 nM
O=C(Nc1cc(Cl)c(-c2ccc3nonc3c2)cn1)N1C2CCC1[C@H](F)c1c2ccnc1F (mixture of isomers) [Compound 5, (±,9S)-N-(5-(benzo[c][1,2,5]oxadiazol-5-yl)-4-chloropyridin-2-yl)-1,9-difluoro-6,7,8,9-tetrahydro-5H-5,8-epiminocyclohepta[c]pyridine-10-carboxamide] | < 500 nM
O=C(Nc1cc(Cl)c(-c2ccc(OC[C@@H]3CCOC3)nc2)cc1F)N1[C@H]2CC[C@@H]1c1c[nH]c(=O)cc1C2 (single isomer, unassigned) [Compound 47] | < 500 nM
Cn1cc(-c2cc(F)c(NC(=O)N3[C@H]4CC[C@@H]3c3c[nH]c(=O)cc3C4)cc2Cl)ccc1=O [Compound 30, (6S,9R)-N-(5-chloro-2-fluoro-4-(1-methyl-6-oxo-1,6-dihydropyridin-3-yl)phenyl)-3-oxo-3,5,6,7,8,9-hexahydro-2H-6,9-epiminocyclohepta[c]pyridine-10-carboxamide] | 500 to 5000 nM
O=C(Nc1cc(Cl)c(-c2ccc(OC[C@H]3CCOC3)nc2)cc1F)N1[C@H]2CC[C@@H]1c1c[nH]c(=O)cc1C2 (single isomer, unassigned) [Compound 48] | < 500 nM
CC(C)(C)OC(=O)N1CC(COc2ccc(-c3cc(F)c(NC(=O)N4[C@H]5CC[C@@H]4c4c[nH]c(=O)cc4C5)cc3Cl)cn2)C1 [Compound 29, tert-Butyl 3-(((5-(2-chloro-5-fluoro-4-((6S,9R)-3-oxo-3,5,6,7,8,9-hexahydro-2H-6,9-epiminocyclohepta[c]pyridine-10-carboxamido)phenyl)pyridin-2-yl)oxy)methyl)azetidine-1-carboxylate] | < 500 nM
O=C(Nc1cc(Cl)c(-c2ccc(O[C@@H]3CCN(CC(F)(F)F)C3)nc2)cc1F)N1[C@H]2CC[C@@H]1c1c[nH]c(=O)cc1C2 (single isomer, unassigned) [Compound 77] | < 500 nM
Cn1ccc2cc(-c3cc(F)c(NC(=O)N4[C@H]5CC[C@@H]4c4c[nH]c(=O)cc4C5)cc3Cl)ccc21 [Compound 26, (6S,9R)-N-(5-chloro-2-fluoro-4-(1-methyl-1H-indol-5-yl)phenyl)-3-oxo-3,5,6,7,8,9-hexahydro-2H-6,9-epiminocyclohepta[c]pyridine-10-carboxamide] | < 500 nM
CC(C)(C)OC(=O)N1CCC(Oc2ccc(-c3cc(F)c(NC(=O)N4[C@H]5CC[C@@H]4c4c[nH]c(=O)cc4C5)cc3Cl)cn2)C1 (stereo partly drawn) [Compound 25, tert-Butyl 3-((5-(2-chloro-5-fluoro-4-((6S,9R)-3-oxo-3,5,6,7,8,9-hexahydro-2H-6,9-epiminocyclohepta[c]pyridine-10-carboxamido)phenyl)pyridin-2-yl)oxy)pyrrolidine-1-carboxylate] | < 500 nM
O=C(Nc1cc(Cl)c(-c2ccc(OCC3CNC3)nc2)cc1F)N1[C@H]2CC[C@@H]1c1c[nH]c(=O)cc1C2 [Compound 63, (6S,9R)-N-(4-(6-(Azetidin-3-ylmethoxy)pyridin-3-yl)-5-chloro-2-fluorophenyl)-3-oxo-3,5,6,7,8,9-hexahydro-2H-6,9-epiminocyclohepta[c]pyridine-10-carboxamide] | 500 to 5000 nM
O=C(Nc1cc(Cl)c(COc2cccc(F)n2)cc1F)N1[C@H]2CC[C@@H]1c1n[nH]c(=O)cc1C2 [Compound 52, (6S,9R)-N-(5-Chloro-2-fluoro-4-(((6-fluoropyridin-2-yl)oxy)methyl)phenyl)-3-oxo-3,5,6,7,8,9-hexahydro-2H-6,9-epiminocyclohepta[c]pyridazine-10-carboxamide] | < 500 nM
O=C(Nc1cc(Cl)c(-c2ccc(OC[C@H]3CCOC3)nc2)cc1F)N1[C@H]2CC[C@@H]1c1n[nH]c(=O)cc1C2 [Compound 80, (6S,9R)-N-(5-Chloro-2-fluoro-4-(6-(((S)-tetrahydrofuran-3-yl)methoxy)pyridin-3-yl)phenyl)-3-oxo-3,5,6,7,8,9-hexahydro-2H-6,9-epiminocyclohepta[c]pyridazine-10-carboxamide] | < 500 nM
O=C(Nc1cc(Cl)c(COc2cccc(OC3CCCC3)n2)cc1F)N1[C@H]2CC[C@@H]1c1n[nH]c(=O)cc1C2 [Compound 59, (6S,9R)-N-(5-chloro-4-(((6-(cyclopentyloxy)pyridin-2-yl)oxy)methyl)-2-fluorophenyl)-3-oxo-3,5,6,7,8,9-hexahydro-2H-6,9-epiminocyclohepta[c]pyridazine-10-carboxamide] | < 500 nM
O=C(Nc1cc(Cl)c(NCc2cccc(OCC(F)(F)F)n2)cc1F)N1[C@H]2CC[C@@H]1c1n[nH]c(=O)cc1C2 [Compound 64, (6S,9R)-N-(5-chloro-2-fluoro-4-(((6-(2,2,2-trifluoroethoxy)pyridin-2-yl)methyl)amino)phenyl)-3-oxo-3,5,6,7,8,9-hexahydro-2H-6,9-epiminocyclohepta[c]pyridazine-10-carboxamide] | < 500 nM
O=C(Nc1cc(Cl)c(COc2cccc(OCC(F)(F)F)n2)cc1F)N1[C@H]2CC[C@@H]1c1n[nH]c(=O)cc1C2 [Compound 56, (6S,9R)-N-(5-chloro-2-fluoro-4-(((6-(2,2,2-trifluoroethoxy)pyridin-2-yl)oxy)methyl)phenyl)-3-oxo-3,5,6,7,8,9-hexahydro-2H-6,9-epiminocyclohepta[c]pyridazine-10-carboxamide] | < 500 nM
O=C(Nc1cc(Cl)c(-c2ccc(OCC3CCOC3)nc2)cc1F)N1[C@H]2CC[C@@H]1c1c[nH]c(=O)cc1C2 (stereo partly drawn) [Compound 16, (6S,9R)-N-(5-chloro-2-fluoro-4-(6-((tetrahydrofuran-3-yl)methoxy)pyridin-3-yl)phenyl)-3-oxo-3,5,6,7,8,9-hexahydro-2H-6,9-epiminocyclohepta[c]pyridine-10-carboxamide] | < 500 nM
O=C(Nc1cc(Cl)c(COc2ccc(OCC(F)(F)F)cn2)cc1F)N1[C@H]2CC[C@@H]1c1c[nH]c(=O)cc1C2 [Compound 54, (6S,9R)-N-(5-chloro-2-fluoro-4-(((5-(2,2,2-trifluoroethoxy)pyridin-2-yl)oxy)methyl)phenyl)-3-oxo-3,5,6,7,8,9-hexahydro-2H-6,9-epiminocyclohepta[c]pyridine-10-carboxamide] | < 500 nM
